The source made the active and inactive calls.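 Rule for the calls: active = fitted curve reaches 35% signal loss at a dose no higher than twice the top tested dose; inconclusive = flat fit with 30 to 70% loss, or poor fit; inactive = the rest.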

The first assay has as its system 26S proteasome chymotrypsin-like activity (human). In words: cellular 26S proteasome inhibition – U2OS cells, luminescence, dry powder, mechanism study for HSF1 activator project, dose response (AID 624444). Conditions: Proteasome-Glo chymotrypsin luminescence.
With `Cc1ccccc1CSc1nnc(N)s1`, the AC35 is 26 µM. Take `O=C(Nc1nc(SCc2ccccc2)ns1)C1CCC1`: the AC35 is 35.4 µM.

Staying with this assay, now noted: Proteasome-Glo chymotrypsin luminescence, at 38 µM (top of the series).
With `O=C(Nc1ccccc1)Nc1nc(SCc2ccccc2)ns1`, the activity change, negative = inhibition was -37.2% (inactive). With `O=C(Nc1nc(SCc2ccccc2)ns1)C1CC=CCC1` (configuration not stated), the activity change, negative = inhibition was -29.4% (inactive). For `Nc1nc(SCc2ccccc2)ns1`, the activity change, negative = inhibition is -11% (inactive).

Regarding `Nc1nc(S(=O)(=O)Cc2ccccc2)ns1`, the activity change, negative = inhibition was -9% (inactive).

Regarding `Cc1cccc(CSc2nsc(N)n2)c1`, the activity change, negative = inhibition was 3.69% (inactive). With `Nc1nc(SCc2ccccc2Cl)ns1`, the activity change, negative = inhibition is -9.05% (inactive). Same read-out and setting: next, `Cc1ccccc1CSc1nsc(N)n1`: -3.56% (inactive). Consider `Nc1nc(SCc2ccc(Cl)cc2Cl)ns1`, for which the activity change, negative = inhibition is 41.7% (inactive).

Regarding `Nc1nc(SCc2ccc(F)cc2)ns1`, the activity change, negative = inhibition is -32% (inactive). With `Cc1ccccc1CSc1n[nH]c(N)n1`, the activity change, negative = inhibition is 19.2% (inactive).

The values above are taken from PubChem BioAssay AID624444 (Broad Institute, 2012).
